The test system of series [1] is mCherry-labeled U87 human osteosarcoma tumors. As to the kind of experiment: In vivo accumulation of OG-labeled conjugates in tumors, confocal microscopy. Details: species or system SCID mice. Conditions: i.v., 50 μM-RGD; tumors removed one hour after injection; FIG. 17A. The source says:
SCID male were inoculated s.c. with 2×10^6 mCherry-labeled U87 human […] or with 5×10^6 mCherry-labeled MG-63 human osteosarcoma. […] One hour after injection, tumors were removed, dissected to thin slices and examined under Zeiss Meta LSM 510 confocal imaging system.
Cellular colocalization of OG labeled PGA-E-[c(RGDfk)2] (SEQ ID NO: 25) conjugate was monitored utilizing a Zeiss Meta LSM 510 confocal imaging systems with 40 oil objectives. All images were taken using a multi-track channel acquisition to prevent emission cross-talk between fluorescent dyes. Single XY, XZ plane-images were acquired in 1024×1024 resolution.

For the next series, the target named is T1, αvβ3 integrin receptor (Homo sapiens, UniProt P05106+P06756).
T1 construct: endogenous in cells; host or cells: HUVEC
T1 sequence (P06756 31-889 limits assumed): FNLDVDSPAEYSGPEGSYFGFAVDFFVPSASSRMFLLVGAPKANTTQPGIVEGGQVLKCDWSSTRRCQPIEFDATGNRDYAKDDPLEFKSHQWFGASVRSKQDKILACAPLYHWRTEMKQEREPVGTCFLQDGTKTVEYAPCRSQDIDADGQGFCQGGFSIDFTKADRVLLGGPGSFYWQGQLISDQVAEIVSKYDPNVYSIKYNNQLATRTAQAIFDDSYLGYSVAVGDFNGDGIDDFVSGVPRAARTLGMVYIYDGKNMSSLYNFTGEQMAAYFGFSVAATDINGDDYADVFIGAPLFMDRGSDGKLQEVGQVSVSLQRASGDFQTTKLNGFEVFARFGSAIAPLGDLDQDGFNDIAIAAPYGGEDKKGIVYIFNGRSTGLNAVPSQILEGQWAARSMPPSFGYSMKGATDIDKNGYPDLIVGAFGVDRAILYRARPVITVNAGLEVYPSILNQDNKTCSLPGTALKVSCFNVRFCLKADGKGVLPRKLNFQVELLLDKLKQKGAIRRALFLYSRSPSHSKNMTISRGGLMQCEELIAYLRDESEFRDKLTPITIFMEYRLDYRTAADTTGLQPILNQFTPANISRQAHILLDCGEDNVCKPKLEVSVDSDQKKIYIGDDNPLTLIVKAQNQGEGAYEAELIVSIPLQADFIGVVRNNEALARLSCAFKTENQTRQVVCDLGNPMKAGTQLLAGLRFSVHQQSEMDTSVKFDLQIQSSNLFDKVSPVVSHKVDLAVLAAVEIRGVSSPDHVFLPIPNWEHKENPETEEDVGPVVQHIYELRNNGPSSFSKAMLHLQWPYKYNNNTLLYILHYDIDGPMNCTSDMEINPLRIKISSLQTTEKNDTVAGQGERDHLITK
T1 sequence (P06756 891-1048 limits assumed): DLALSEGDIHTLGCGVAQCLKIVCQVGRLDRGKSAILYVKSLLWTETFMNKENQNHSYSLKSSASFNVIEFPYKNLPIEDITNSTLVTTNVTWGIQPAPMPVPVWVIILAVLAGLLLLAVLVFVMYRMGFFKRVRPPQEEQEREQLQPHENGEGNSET
T1 sequence (P05106 27-788): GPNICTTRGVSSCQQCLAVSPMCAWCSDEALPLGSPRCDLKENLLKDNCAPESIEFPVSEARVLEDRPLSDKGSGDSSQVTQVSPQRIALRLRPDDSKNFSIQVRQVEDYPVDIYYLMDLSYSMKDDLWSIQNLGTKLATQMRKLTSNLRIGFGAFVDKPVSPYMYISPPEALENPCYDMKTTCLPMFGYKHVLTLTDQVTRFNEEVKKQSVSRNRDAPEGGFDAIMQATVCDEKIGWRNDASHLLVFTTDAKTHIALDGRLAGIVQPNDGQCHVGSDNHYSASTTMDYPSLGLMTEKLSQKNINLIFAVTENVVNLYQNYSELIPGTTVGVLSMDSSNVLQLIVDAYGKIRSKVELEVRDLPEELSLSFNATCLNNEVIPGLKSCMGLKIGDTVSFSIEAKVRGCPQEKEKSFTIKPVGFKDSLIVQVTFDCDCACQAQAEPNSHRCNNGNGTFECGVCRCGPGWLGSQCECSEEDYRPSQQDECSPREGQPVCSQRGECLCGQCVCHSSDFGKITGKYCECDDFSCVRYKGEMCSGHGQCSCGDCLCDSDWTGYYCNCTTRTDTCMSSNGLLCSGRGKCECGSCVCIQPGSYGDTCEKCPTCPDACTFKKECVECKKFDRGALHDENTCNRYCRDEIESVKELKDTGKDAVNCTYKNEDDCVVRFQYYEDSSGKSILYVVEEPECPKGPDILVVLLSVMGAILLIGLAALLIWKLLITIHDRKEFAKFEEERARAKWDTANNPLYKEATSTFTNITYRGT
As to the kind of experiment: αvβ3 interaction with fluorescently labeled conjugates in HUVEC. The class given is cell-based. How it is done:
A fluorescence probe, Oregon Green-cadaverine (OG), was conjugated to PGA conjugates through the free carboxylic groups (see Example 5 for synthesis description), in order to study the cellular uptake and trafficking.
HUVEC were plated onto 6 mm plates (5×10^5 cells/plate) in EBM-2 (Cambrex, USA) supplemented with 5% FBS. Following 24 hours of incubation (37° C.; 5% CO2), cells were challenged with either PGA-OG, PGA-c(RADfk)-OG (SEQ ID NO: 24) or PGA-E-[c(RGDfk)2]-OG (SEQ ID NO:25) diluted in EGM-2 medium for 5, 10, 15, 30 or 60 minutes. Cells were then washed in PBS (×3), harvested with PBS containing 2.5 mM EDTA and analyzed with the ImageStream 100 imaging flow cytometer (Amnis). Analysis was performed using IDEAS software.

The subject of series [2] is PANC02 murine pancreatic tumor cells. Description: Cell proliferation assay, PANC02. The class given is cell-based. How it is done: (§1) The anti-angiogenesis and anti-proliferative activity of the conjugates described herein was evaluated by the effect of the conjugates on the proliferation of HUVEC, U87 and PANC02 cells.
(§2) HUVEC were plated onto 24-well plate (1×10^4 cells/well) in endothelial cell basal medium 2 (EBM-2; Cambrex, USA) supplemented with 5% fetal bovine serum (FBS). Following 24 hours of incubation (37° C.; 5% CO2) medium was replaced with Endothelial cell growth medium-2 (EGM-2; Cambrex, USA). U87 and PANC02 cells were plated onto 96 well plate (2×10^3 cells/well) in DMEM supplemented with 5% FBS and incubated for 24 hours (37° C.; 5% CO2). Following 24 hours of incubation the medium was replaced with DMEM containing 10% FBS. Cells were challenged with the tested compounds at serial concentrations for 72 hours. After incubation the number of HUVEC were counted by Coulter Counter and U87, and PANC02 cells were counted by XTT respectively.

In series [3] the test system is HUVEC. As to the kind of experiment: Capillary-like tube formation assay. Type of series: cell-based, human. Conditions: equivalent concentrations of 10 nM (PTX) and 19 nM (E-[c(RGDfk)2]); conjugate with 5 mol % E-[c(RGDfk)2], 2.6 mol % PTX; FIG. 16B. How it is done:
The anti-angiogenesis activity of the conjugates was evaluated by the effect of the conjugates on the ability of HUVEC cells to form capillary-like tube structures.
The surface of 24-well plates was coated with Matrigel matrix (50 μl/well) (BD Biosciences, USA) on ice and was then allowed to polymerize at 37° C. for 30 minutes. HUVEC (3×10^4 cells) were challenged with the tested compounds, and were seeded on coated plates in the presence of complete EGM-2 medium. After 8 hours of incubation (37° C.; 5% CO2), wells were imaged using Nikon TE2000E inverted microscope integrated with Nikon DS5 cooled CCD camera by 4× objective, brightfield technique. During the tube formation assay endothelial cells directionally migrate to align, branch and form polygonal networks (i.e. tube like structures). The extent of capillary-like tube structures is inversely proportional to the anti-angiogenesis activity of the compounds.

The test system of series [4] is HUVEC. As to the kind of experiment: Endothelial cell adhesion assay on fibrinogen coated plates. The class given is cell-based, human. The procedure:
The ability of E-[c(RGDfk)2] and E-c(RGDfk) moieties (SEQ ID NOs: 2 and 41) in the conjugates to inhibit endothelial attachment to cellular matrix after conjugation, was assessed using an adhesion assay. Flat bottom 96-well culture plates (Nunc, Denmark) were coated with 0.5 μg/well fibrinogen overnight at 4° C. After washing three times with Phosphate buffered saline (PBS), the wells were blocked with 1% bovine serum albumin (BSA) for 1 hour at 37° C. and washed three times again with PBS. HUVEC were harvested in phosphate-buffered saline (137 mM NaCl, 2.7 mM KCl, 4.3 mM Na2HPO4, 1.4 mM KH2PO4, pH 7.3) with 2.5 mM EDTA and resuspended in EBM-2 serum-free media (Clonetics). HUVEC were incubated for 30 minutes, at room temperature, with the tested compounds. The treated HUVEC were plated at 5×10^4 cells per well and were allowed to attach for 1 hour at 37° C. After incubation, the unattached cells were removed by rinsing the wells with PBS. The attached cells were fixed with 3.7% formaldehyde, stained with 0.5% crystal violet and were imaged using Nikon TE2000E inverted microscope integrated with Nikon DS5 cooled CCD camera by 4× objective, brightfield technique. The number of attached cells was quantified with NIH ImageJ processing and analysis software. Non-specific binding was determined by adhesion of HUVEC cells, which were not incubated with any of the tested compounds, to BSA-coated plates.

The target of another series is Cathepsin B (Homo sapiens, UniProt P07858). As to the kind of experiment: Release of PTX from conjugates in the presence of Cathepsin B. The class given is in vitro ADME. How it is done: The ability of Cathepsin B to cleave and therefore release PTX from PGA copolymer-E-c(RGDfk)2-PTX (SEQ ID NO:18) was assessed as follows:
Cathepsin B (5 U) was added last to a 1 ml solutions containing 3 mg of the tested conjugates and 20 mM sodium acetate, 2 mM EDTA and 5 mM DTT at a pH of 6 and at a temperature of 37° C. Solutions containing free PGA polymer and free PTX served as control. Sample aliquots (100 μl) were taken at various time points up to 72 hours, frozen and stored in liquid nitrogen, until assayed by HPLC (by Porous50 resin) and/or by Gel permeation chromatography (GPC; direct analysis of 50 μl aliquots). PGA polymer incubated in buffer alone (without addition of cathepsin B) served as an additional control to assess non-enzymatic hydrolytic cleavage. The amount of free PTX released from the tested compounds was assessed by HPLC (X=220 nm). Doxycycline was used as internal standard in all cases. In addition, an LC-MS analysis of the released compounds was also carried out to in order determine the major metabolites released. The MW of the conjugates was determined by diluting 50 μl aliquots of the conjugate containing solution to a final volume of 200 μl with PBS buffer and subjecting the aliquots to GPC analysis (Viscotek TDA detector).

Series [5] has as its system HUVEC. As to the kind of experiment: cells. Type of series: cell-based, human. The procedure: as §1, §2
The test system of series [6] is HUVEC. Description: Migration assay of HUVEC towards VEGF. Type of series: cell-based, human. Conditions: equivalent concentrations of 100 nM PTX; conjugate with 5 mol % E-[c(RGDfk)2], 2.6 mol % PTX; FIG. 14. The procedure: The anti-angiogenesis activity of the conjugates was evaluated by examining the effect of the conjugates on the ability of HUVEC to migrate toward the Vascular Endothelial Growth Factor (VEGF).
Cell migration assay was performed using modified 8 μm Boyden chambers Transwells® (Costar Inc., USA) coated with 10 μg/ml fibronectin HUVEC (15×10^4 cells/100 μl) were challenged with the tested compounds that were added to the upper chamber of the transwells for 2 hours. Following incubation, cells were allowed to migrate to the underside of the chamber for 4 hours in the presence or absence of VEGF (20 ng/ml) in the lower chamber. Cells were then fixed and stained (Hema 3 Stain System; Fisher Diagnostics, USA). The stained migrated cells were imaged using Nikon TE2000E inverted microscope integrated with Nikon DS5 cooled CCD camera by 10× objective, brightfield illumination. Migrated cells from the captured images per membrane were counted using NIH image software. Migration was normalized to the percent of migration toward VEGF of HUVEC which were not incubated with any compound. The extent of migration is inversely proportional to the anti-angiogenesis activity of the compounds.

Series [7] can be described thus: Hydrodynamic diameter by Nanoparticle Tracking Analysis. Type of series: physicochemical. Conditions: PTX loading of 2.3 mol % and -E-c(RGDfk) loading of 5 mol %; PBS; FIG. 9C. How it is done: The mean hydrodynamic diameter of the PGA conjugates was evaluated using a real time particle analyzer (NanoSight LM20™) containing a solid-state, single mode laser diode (<20 mW, 655 nm) configured to launch a finely focused beam through a 500 μl sample chamber. The tested conjugate was dissolved in PBS to a final concentrations of 9.9 mg/ml. The samples were then injected into the chamber by syringe and allowed to equilibrate to a unit temperature (23° C.) for 30 seconds. The particles dynamics were visualized at 30 frames per second (fps) for 60 seconds at 640×480 resolution by the device CCD camera. The paths the particles take under Brownian motion over time were analyzed using Nanoparticle Tracking Analysis (NTA) software. […] Each sample was measured three times in triplicates, and the results represent the mean diameter.

Setting [8] is: HUVEC proliferation, nM PTX, FIG. 13A (5 mol % E-[c(RGDfk)2], 2.6 mol % PTX) and FIG. 13B (monocyclic), read-out: IC50, bell shaped effect, higher value.
The mark [9] stands for this setting: HUVEC proliferation, nM PTX, FIG. 13A (5 mol % E-[c(RGDfk)2], 2.6 mol % PTX) and FIG. 13B (monocyclic), read-out: IC50, bell shaped effect, lower value.
[10] abbreviates: HUVEC, 72 hours, bis-cyclic RGD compounds (X = 2), NA = did not reach IC50 in the concentrations used, 'a -- b' = bell-shaped curve, read-out: IC50 (nM) of PGA- PTX-E-[c(RGDfk)2] (SEQ ID NO: 18) 2.6 mol % PTX, 5 mol % RGD.

Read-outs that look alike come from different tables or passages of the source.

Four substances from patent US9259482B2, “Conjugates of polymers having a therapeutically active agent and an angiogenesis targeting moiety attached thereto and uses thereof in the treatment of angiogenesis related diseases” (Ramot at Tel-Aviv University Ltd., priority 2008, dated 2016) can be followed below.

Turning to PGA-E-[c(RGDfk)2]-OG, the “accumulation of the conjugate at the tumor site” value in series [1] is recorded as “high accumulation”. Also, the “time at which conjugate-cell adherence was first observed” value with αvβ3 integrin receptor (ImageStream 100 imaging flow cytometer) worked out at 10 min. Moreover, the “extent of binding / uptake by HUVEC” value in the series with αvβ3 integrin receptor (OG fluorescence, FIGS. 11B, 11C) is recorded as “higher uptake”.
As to “PGA-Copolymer -E-c(RGDfk)2-Paclitaxel [PGA-PTX-E-[c(RGDfk)2]]”, the IC50 in series [2] (PANC02, 72 hours, bis-cyclic RGD compounds (X = 2), NA = did not reach IC50 in the concentrations used, read-out: IC50 (nM) of PGA- PTX-E-[c(RGDfk)2] (SEQ ID NO: 18) 5 mol % PTX, 3.9 mol % RGD) was 650 nM; in series [2] (nM PTX, equivalent doses, FIG. 12C, read-out: IC50 of PANC02 proliferation) it was approximately 650 nM; in the series with HUVEC [5] (setting [8]), approximately 20 nM; in the series on HUVEC [5] (setting [9]), approximately 0.2 nM; in the series with HUVEC [5] (setting [10]), 25 nM. In addition, in the series on HUVEC [3], the “inhibition of the formation of tubular structures of HUVEC” value is “about 40%”. Besides, the “adhesion inhibition compared with the monocyclic conjugate PGA-PTX-E-c(RGDfk)” value in the series on HUVEC [4] (both loadings of the bis-cyclic conjugate) is “inhibited the adhesion more effectively than the monocyclic RGDfk peptide conjugate”. For the same substance, the “adhesion inhibition compared with the other loading” value in the series with HUVEC [4] (conjugate with 3.9 mol % E-[c(RGDfk)2] and 5.5 mol % PTX versus conjugate with 5 mol % E-[c(RGDfk)2] and 2.6 mol % PTX) was “more effective than the second”. The “PTX release kinetics compared to the other conjugates” value with Cathepsin B (conjugate with 3.9 mol % E-[c(RGDfk)2], 5.5 mol % PTX, pH 6, 37° C.) is listed as “slightly faster release kinetics”. Besides, the “PTX release compared with the conjugate of 2.6 mol % PTX, 5 mol % E-[c(RGDfk)2]” value with Cathepsin B (conjugate with 5.5 mol % PTX, 3.9 mol % E-[c(RGDfk)2], after 48 hours) is reported as “greater”. The “inhibition of the migration of HUVEC towards VEGF” value with HUVEC [6] is “about 40%”.
Turning to PGA-PTX-E-c(RGDfk), in series [7], the mean hydrodynamic diameter result is “about 35 nm”. Besides, the “inhibition of HUVEC adhesion to fibrinogen” value in the series on HUVEC [4] (equivalent concentrations of 50 μM RGD, FIG. 15) is on record as approximately 50%. Also, the IC50 with HUVEC [5] (setting [8]) was approximately 20 nM; in the series on HUVEC [5] (setting [9]), approximately 0.2 nM.
Consider PGA-E-[c(RGDfk)2], for which the “accumulation of the conjugate at the tumor site” value in [1] is “able to accumulate in the tumor tissue”. Besides, the “effect on HUVEC proliferation” value in the series on HUVEC [5] (FIG. 12A) was “only at high concentrations”. Also, the IC50 in the series on HUVEC [5] (setting [10]) was 2900 nM; in the series on HUVEC [5] (HUVEC, 72 hours, bis-cyclic RGD compounds (X = 2), NA = did not reach IC50 in the concentrations used, 'a -- b' = bell-shaped curve, read-out: IC50 (nM) of PGA- PTX-E-[c(RGDfk)2] (SEQ ID NO: 18) 5 mol % PTX, 3.9 mol % RGD), 7000 nM.
